According to patent US11839637B2, “Neuron activator” (Kinjirushi Co., Ltd., priority 2017, dated 2023):

Tests used:
Assay type in all cases: cell-based, rat
PC12 cells [1] = experiment: Hydrogen peroxide toxicity resistance test, MTT (Experimental example 6); details: for MTT assay in medium with hydrogen peroxide: hydrogen peroxide 100 μM, component alone or combination with 6-MSITC
Method: In Experimental example 6, resistance of PC12 cells against hydrogen peroxide was tested. The test method is the same as that of Experimental example 5, except that hydrogen peroxide was added to the differentiation medium B, instead of amyloid β in Experimental example 5 above. A concentration of hydrogen peroxide in the differentiation medium B was 100 μM.

PC12 cells [2] = experiment: Neurite extension test of PC12 cells (Experimental example 3); details: 72 hours; for neurite extension effect, as compared to a case without these components: any one component in the medium, NGF 50 ng/ml
Method: Neurite extension tests of PC12 cells, using various components, were carried out as follows.
(§1) Such passage was repeated at least three times.
(§2) Supernatants were removed.
(§3) Each sample is numbered 1 to 39.
Supernatants were removed. Three microscopic images (bright field, ×10 images, three wells per well) of PC12 cells settled in each well were taken. The shape of the whole PC12 cells in the images was observed. A shown in FIG. 6, when PC12 cells undergo differentiation, a neurite 2 extends from a cell body 1. The total number of PC12 cells, and the number of cells having the neurite 2 with a length L2 were counted. The length L2 is a longer length than a longer diameter L1 of the cell body 1. The number of cells having the neurite with the length L2 was divided by the total number of cells to obtain an extension percentage of the PC12 cells. […] The extension percentage was expressed by an average value of all PC12 cells appearing in all images. […] The same applies to FIGS. 8 to 11. […] Synergistic effect herein means that use of two components in combination can increase the extension percentage as compared to a sum of extension percentages when each component is used alone.

PC12 cells [3] = experiment: Dopamine production test of PC12 cells (Experimental example 1); details: 72 hours; for dopamine-producing ability, as compared to a case without these components: any one component in the medium, NGF 50 ng/ml
Method: Dopamine production tests of PC12 cells, using various components, were carried out as follows.
as §1, §2, §3
A concentration of dopamine in each supernatant was measured. Measurement of dopamine concentration was carried out using ELIZA KIT (manufactured by ImmuSmol, Product No.: BA-E-5300) according to the specifications. A ratio of dopamine concentration in each supernatant was expressed as a percentage (%) of a control of which dopamine concentration in the supernatant is 1.
The same applies to FIGS. 2 to 5. In FIG. 1, τ means statistically significant. * means that synergistic effect was confirmed by combining two components. Synergistic effect herein means that use of two components in combination can produce more amount of dopamine than a sum of amounts of dopamine produced when each component is used alone.

PC12 cells [4] = experiment: Toxicity test to PC12 cells using MTT reagent (Experimental example 4); details: 72 hours, 6-MSITC and DHA 2.5-160 μM, curcumin 2.5-40 μM, isorhamnetin 2.5-20 μM
Method: In order to investigate toxicity of each component to PC12 cells, the PC12 cells were cultured in the same manner as in the above steps (1) to (4) of Experimental example 3, except for components added to the medium.
as §2

PC12 cells [5] = experiment: Toxicity test to PC12 cells using MTT reagent (Experimental example 2); details: 72 hours, 6-MSITC and DHA 2.5-160 μM, curcumin 2.5-40 μM, isorhamnetin 0.02-10 μM
Method: In order to investigate toxicity of each component to PC12 cells, the PC12 cells were cultured in the same manner as in the above steps (1) to (4) of Experimental example 1, except for components added to the medium.
as §2

| Structure (SMILES) | MTT assay in medium with hydrogen peroxide (PC12 cells [1]) | extension of PC12 cells (extension percentage) (PC12 cells [2]; 0.1 μM added to the medium) | extension of PC12 cells (extension percentage) (PC12 cells [2]; 0.5 μM added to the medium) | extension of PC12 cells (extension percentage) (PC12 cells [2]; 2.5 μM added to the medium) | neurite extension effect, as compared to a case without these components (PC12 cells [2]) | amount of dopamine production produced by the PC12 cells vs control (PC12 cells [3]; 0.1 μM added to the medium) | amount of dopamine production produced by the PC12 cells vs control (PC12 cells [3]; 2.5 μM added to the medium) | dopamine-producing ability, as compared to a case without these components (PC12 cells [3]) | MTT assay compared with control (not using the component) (PC12 cells [4]) | toxicity to PC12 cells (PC12 cells [4]; MTT) | extension of PC12 cells (extension percentage) (PC12 cells [2]; 0.02 μM added to the medium) | amount of dopamine production produced by the PC12 cells vs control (PC12 cells [3]; 0.02 μM added to the medium) | amount of dopamine production produced by the PC12 cells vs control (PC12 cells [3]; 0.5 μM added to the medium) | MTT assay compared with control (not using the component) (PC12 cells [5]) | toxicity to PC12 cells (PC12 cells [5]; MTT) | MTT assay, as compared to the medium without hydrogen peroxide (control) (PC12 cells [1]; medium containing only hydrogen peroxide, 100 μM) |
| --- | --- | --- | --- | --- | --- | --- | --- | --- | --- | --- | --- | --- | --- | --- | --- | --- |
| COc1cc(/C=C/C(=O)CC(=O)/C=C/c2ccc(O)c(OC)c2)ccc1O [curcumin, Curcumin] | a value without problem | significant extension enhancement | significant extension enhancement | significant extension enhancement | enhanced | higher than the control | higher than the control | enhanced | – | – | – | – | – | – | – | – |
| COc1cc(-c2oc3cc(O)cc(O)c3c(=O)c2O)ccc1O [isorhamnetin, Isorhamnetin] | a value without problem | significant extension enhancement | significant extension enhancement | – | enhanced | higher than the control | – | enhanced | higher than the case of not using them (control) | low | significant extension enhancement | higher than the control | higher than the control | higher than the case of not using them (control) | low | – |
| OO [hydrogen peroxide, reference compound] | – | – | – | – | – | – | – | – | – | – | – | – | – | – | – | significantly decreased |
